From patent EP2468718A1, “Cabanillasin, a new antifungal compound, produced by entomopathogenic xenorhabdus cabanillasii” (Nosopharm, priority 2010, dated 2012)
≈ marks a conversion by molar mass, not a printed value. Where “and” joins values, the source holds several entries; their conditions need not be identical. Equal values may be shown once. Read-outs that look alike come from different tables or passages of the source.

Key:
Type in all cases: cell-based
[1] = test system: Candida albicans ATCC 90029; assay: Antifungal susceptibility testing, NCCLS M27-A2 broth microdilution (yeasts); conditions: for inhibition at 0.09 µg/mL: ATCC90029, 0.09 µg/mL; for inhibition at 0.09 µg/mL / inhibition at 0.19 µg/mL / inhibition at 0.39 µg/mL / inhibition at 0.78 µg/mL / inhibition at 1.56 µg/mL / inhibition at 3.12 µg/mL / inhibition at 6.25 µg/mL / inhibition at 12.5 µg/mL / inhibition at 25 µg/mL / inhibition at 50 µg/mL: read-out: % of growth inhibition; for inhibition at 0.19 µg/mL: ATCC90029, 0.19 µg/mL; for inhibition at 0.39 µg/mL: ATCC90029, 0.39 µg/mL; for inhibition at 0.78 µg/mL: ATCC90029, 0.78 µg/mL; for inhibition at 1.56 µg/mL: ATCC90029, 1.56 µg/mL; for inhibition at 3.12 µg/mL: ATCC90029, 3.12 µg/mL; for inhibition at 6.25 µg/mL: ATCC90029, 6.25 µg/mL; for inhibition at 12.5 µg/mL: ATCC90029, 12.5 µg/mL; for inhibition at 25 µg/mL: ATCC90029, 25 µg/mL; for inhibition at 50 µg/mL: ATCC90029, 50 µg/mL
[2] = test system: Cryptococcus neoformans clinical strain; assay: as above; conditions: for inhibition at 0.09 µg/mL / inhibition at 0.19 µg/mL / inhibition at 0.39 µg/mL / inhibition at 0.78 µg/mL / inhibition at 1.56 µg/mL / inhibition at 3.12 µg/mL / inhibition at 6.25 µg/mL / inhibition at 12.5 µg/mL / inhibition at 25 µg/mL / inhibition at 50 µg/mL: read-out: % of growth inhibition
[3] = test system: Candida Glabrata ATCC 90030; assay: as above; conditions: Nakaseomyces glabratus, ATCC90030; for inhibition at 0.09 µg/mL / inhibition at 0.19 µg/mL / inhibition at 0.39 µg/mL / inhibition at 0.78 µg/mL / inhibition at 1.56 µg/mL / inhibition at 3.12 µg/mL / inhibition at 6.25 µg/mL / inhibition at 12.5 µg/mL / inhibition at 25 µg/mL / inhibition at 50 µg/mL: read-out: % of growth inhibition
[4] = test system: hTERT HME-1 (Human normal mammary epithelium); assay: Cytotoxicity test (MTT); conditions: 48 h exposure, triplicate
Method: (§1) One hundred microliters of the cell suspension of PC-3 (Human prostatic carcinoma) or hTERT HME-1 (Human normal mammary epithelium) prepared in RPMI + 10% SVF + 1% glutamine were inoculated into 96-well plates. The inoculating cell number was 3500 cells per well for PC-3 and 7500 cells per well for hTERT HME-1. The microplates were incubated at 37°C for 24h with 5% of CO2. After 24 h of culture, the medium was removed by aspiration and 100 µl of RPMI + 10% SVF + 1% glutamine with 8 concentrations of Cabanillasin (from 0.78 µg/mL to 100 µg/mL) were added to each well. Microplates were incubated at 37°C for 48 h with 5% of CO2. After 48h of culture, the medium was removed by aspiration and 100 µL of RPMI + MTT (0.5 mg/mL) were added to each wells. Microplates were inoculated at 37°C during 150 min. Next, all the medium was removed by inverting and tapping the plate and 100 µL of DMSO were added in each plate. The spectrophotometric absorbance was then measured at 550 nm. The Lethal Dose 50 correspond to DL50 = ((50-(Y2-((Y1-Y2)/(X1-X2))*X2))/ ((Y1-Y2)/(X1-X2))). […] Experiments were done in triplicate.

[5] = test system: PC-3 (Human prostatic carcinoma); assay: Cytotoxicity test (MTT); conditions: 48 h exposure, triplicate
Method: as §1

In the case of `CC(=O)NC(=N)NCCCCNC(=N)NCCCCNC(=N)NCCCCNC(=N)NCCCCN` [Cabanillasin], the inhibition at 0.09 µg/mL ([1]; 24 h incubation) is reported as 34%, the inhibition at 0.09 µg/mL ([1]; 48 h incubation) is reported as 0% and the inhibition at 0.19 µg/mL ([1]; 24 h incubation) is reported as 37%. For the same molecule, the inhibition at 0.19 µg/mL ([1]; 48 h incubation) was 0%, the inhibition at 0.39 µg/mL ([1]; 24 h incubation) was 34% and the inhibition at 0.39 µg/mL ([1]; 48 h incubation) was 0%. It also gave an inhibition at 0.78 µg/mL ([1]; 24 h incubation) of 50.5%, an inhibition at 0.78 µg/mL ([1]; 48 h incubation) of 0% and an inhibition at 1.56 µg/mL ([1]; 24 h incubation) of 46.3%. The inhibition at 1.56 µg/mL ([1]; 48 h incubation) was 0%, the inhibition at 3.12 µg/mL ([1]; 24 h incubation) was 45.4% and the inhibition at 3.12 µg/mL ([1]; 48 h incubation) was 0%. The inhibition at 6.25 µg/mL ([1]; 24 h incubation) was 47.7%, the inhibition at 6.25 µg/mL ([1]; 48 h incubation) was 0% and the inhibition at 12.5 µg/mL ([1]; 24 h incubation) was 70.7%. It also gave an inhibition at 12.5 µg/mL ([1]; 48 h incubation) of 0%, an inhibition at 25 µg/mL ([1]; 24 h incubation) of 71% and an inhibition at 25 µg/mL ([1]; 48 h incubation) of 0%. The inhibition at 50 µg/mL ([1]; 24 h incubation) was 81%, the inhibition at 50 µg/mL ([1]; 48 h incubation) was 18% and the IC50 ([1]; ATCC90029, 24 h of incubation) was 0.78 µg/mL (≈ 1.52 µM). The inhibition at 0.09 µg/mL ([2]; 48 h incubation) was 0%, the inhibition at 0.09 µg/mL ([2]; 72 h incubation) was 0% and the inhibition at 0.19 µg/mL ([2]; 48 h incubation) was 0%. For the same molecule, the inhibition at 0.19 µg/mL ([2]; 72 h incubation) was 0%, the inhibition at 0.39 µg/mL ([2]; 48 h incubation) was 0% and the inhibition at 0.39 µg/mL ([2]; 72 h incubation) was 0%. It also gave an inhibition at 0.78 µg/mL ([2]; 48 h incubation) of 0%, an inhibition at 0.78 µg/mL ([2]; 72 h incubation) of 0% and an inhibition at 1.56 µg/mL ([2]; 48 h incubation) of 0%. For the same molecule, the inhibition at 1.56 µg/mL ([2]; 72 h incubation) was 0%, the inhibition at 3.12 µg/mL ([2]; 48 h incubation) was 23.8% and the inhibition at 3.12 µg/mL ([2]; 72 h incubation) was 0%. The inhibition at 6.25 µg/mL ([2]; 48 h incubation) was 32%, the inhibition at 6.25 µg/mL ([2]; 72 h incubation) was 0% and the inhibition at 12.5 µg/mL ([2]; 48 h incubation) was 47.3%. It also gave an inhibition at 12.5 µg/mL ([2]; 72 h incubation) of 0%, an inhibition at 25 µg/mL ([2]; 48 h incubation) of 65.3% and an inhibition at 25 µg/mL ([2]; 72 h incubation) of 0%. For the same molecule, the inhibition at 50 µg/mL ([2]; 48 h incubation) was 63.8%, the inhibition at 50 µg/mL ([2]; 72 h incubation) was 0% and the IC50 ([2]; after 48 h) was 25 µg/mL (≈ 48.9 µM). For the same molecule, the IC50 ([2]; after 72 h) was > 50 µg/mL, the inhibition at 0.09 µg/mL ([3]; 24 h incubation) was 0% and the inhibition at 0.09 µg/mL ([3]; 48 h incubation) was 0%. The inhibition at 0.19 µg/mL ([3]; 24 h incubation) was 5.5%, the inhibition at 0.19 µg/mL ([3]; 48 h incubation) was 0% and the inhibition at 0.39 µg/mL ([3]; 24 h incubation) was 11.4%. It also gave an inhibition at 0.39 µg/mL ([3]; 48 h incubation) of 0%, an inhibition at 0.78 µg/mL ([3]; 24 h incubation) of 15.5% and an inhibition at 0.78 µg/mL ([3]; 48 h incubation) of 0%. It also gave an inhibition at 1.56 µg/mL ([3]; 24 h incubation) of 28%, an inhibition at 1.56 µg/mL ([3]; 48 h incubation) of 0% and an inhibition at 3.12 µg/mL ([3]; 24 h incubation) of 31%. It also gave an inhibition at 3.12 µg/mL ([3]; 48 h incubation) of 0%, an inhibition at 6.25 µg/mL ([3]; 24 h incubation) of 49.3% and an inhibition at 6.25 µg/mL ([3]; 48 h incubation) of 0%. It also gave an inhibition at 12.5 µg/mL ([3]; 24 h incubation) of 66.2%, an inhibition at 12.5 µg/mL ([3]; 48 h incubation) of 18.5% and an inhibition at 25 µg/mL ([3]; 24 h incubation) of 61.4%. It also gave an inhibition at 25 µg/mL ([3]; 48 h incubation) of 44%, an inhibition at 50 µg/mL ([3]; 24 h incubation) of 59% and an inhibition at 50 µg/mL ([3]; 48 h incubation) of 57%. For the same molecule, the IC50 ([3]; 24 h of incubation) was 6.25 µg/mL (≈ 12.2 µM), the “LD 50” value [4] was 24.46 ± 2.51 µg/mL and 24.46 µg/mL and the “LD 50” value [5] was 46.83 ± 1.55 µg/mL and 46.83 µg/mL.
